Values quoted from earlier work as cited in patent US20100285123A1, “Controlled Release Dosage Formulation of Duloxetine” (priority 2005, published 2010).
Where a name gives a salt, the structure may show the parent alone.

Assays:
[1] = gastric pH
[2] = patients, acute treatment of major depression

SMILES	patients who did not experience any treatment experienced related adverse event (110 of 1279 patients) [%]	patients discontinued due to adverse events (218 of 1279 patients, major depression, long-term) [%]	headache, patients reporting (389 of 1279 patients) [%]	insomnia, patients reporting (400 of 1279 patients) [%]	nausea, patients reporting (435 of 1279 patients) [%]	patients who experienced at least one or more treatment experienced adverse event (1169 of 1279 patients) [%]	stability in acidic environment [1]	headache reported [2] [%]	incidence of nausea [2] [%]	insomnia reported [2] [%]
CNCC[C@H](Oc1cccc2ccccc12)c1cccs1 [Duloxetine hydrochloride]	8.6	17.0	30.4	31.3	34.0	91.4	unstable	–	–	–
Fc1ccc([C@@H]2CCNC[C@H]2COc2ccc3c(c2)OCO3)cc1 [Paroxetine]	–	–	–	–	–	–	–	11.5	16.1	8.0
